Tested on: PP2A
Assay: Protein phosphatase (PP2A) assay in adrenal glands of treated mice
Format: in vivo, male C57BL/6 mice
Conditions: for increase of PP2A activity in mouse adrenal gland: as compared to untreated controls, route not given; for increase of PP2A activity in adrenal gland: up to 48 hr postdose, vs untreated control mice
Protocol: The objectives of this study were to evaluate the pharmacokinetic profiles of FTY720-C2 and FTY720-Mitoxy following single oral and intravenous (IV) dosing of male mice and to determine blood and tissue levels of both compounds at various postdose time points. Male C57BL/6 mice were 8.4 weeks of age and weighed 20.6–24.8 g on the day of dose administration. Each animal was identified by a unique number via an ear tag with a matching cage tag. Mice were administered (two mice per time point) a single equivalent molar dose of either FTY720-C2 (1 mg/kg) or FTY720-Mitoxy (2 mg/kg) by oral or intravenous administration. As the molecular weight of FTY720-Mitoxy (704.72 g/mol) is ~ two times greater than that of FTY720-C2 (349.51 g/mol), the dose level of FTY720-Mitoxy was double that of FTY720-C2. Details of the design showing group assignments, dose groups, dose levels, as well as blood collection and necropsy time points are shown in Table 2. At the appropriate time points after dosing and blood sample collection for bioanalysis, animals were euthanized by CO2 inhalation until unresponsive, followed by decapitation. Brains were rapidly harvested, rinsed with ice cold saline, blotted dry and bisected along the mid-line. The left and right hemispheres of the brain were weighed separately. Each was placed in separate tubes, immediately flash frozen in liquid nitrogen and stored at -70°C prior to evaluation. All samples were labeled with the test facility study number, animal identification number, dose group, date, collection interval, and tissue identity (left or right brain hemisphere). Adrenal glands from each mouse were also collected and flash frozen.
Adrenal glands from treated mice were homogenized in buffer containing 20 mM imidazole-HCl, 2 mM EDTA, 2 mM EGTA, plus protease inhibitors, at 4°C. The homogenates were centrifuged to remove particulates followed by free phosphate removal on MicrospinTM-G-25 columns (GE Healthcare). Aliquots of supernatants were incubated in 4-Nitrophenyl-phosphate (pNPP) buffer consisting of 50 mM Tris-HCl, pH 7.0, 0.1 mM CaCl2 with threonine-phosphopeptide (KRpTIRR) substrate. The reactions were run for 10 min at 30°C and stopped by placing samples on ice. Phosphate levels were determined by measuring absorbance at 650 nm using a Multiskan Spectrum plate reader (Thermo Scientific, Pittsburgh, PA) and were compared to freshly prepared standards as previously described, but using a malachite green solution prepared according to Fathi et al.. Samples from two mice per time point (n = 2) were assayed in triplicate to confirm technical fidelity.

Row | SMILES | increase of PP2A activity in mouse adrenal gland | increase of PP2A activity in adrenal gland (single IV dose (FTY720-C2 1 mg/kg, FTY720-Mitoxy 2 mg/kg)) | increase of PP2A activity in adrenal gland (single oral dose (FTY720-C2 1 mg/kg, FTY720-Mitoxy 2 mg/kg))
1 | CCCCCCCCc1ccc(CCC(CO)(CO)NC(C)=O)cc1 [FTY720-C2, N-(1-hydroxy-2-(hydroxymethyl)-4-(4-octylphenyl)butan-2-yl)acetamide] | ~ 2 fold | 2 fold | –
2 | CCCCCCCCc1ccc(CCC(CO)(CO)NC(=O)CC[P+](c2ccccc2)(c2ccccc2)c2ccccc2)cc1 [FTY720-Mitoxy, N-(1-hydroxy-2-(hydroxymethyl)-4-(4-octylphenyl)butan-2-yl)-3’-triphenylphosphoniumpropanamide] | ~ 2 fold | – | no stimulating effect

Source: article PMC5017749, “Preclinical Metabolism, Pharmacokinetics and In Vivo Analysis of New Blood-Brain-Barrier Penetrant Fingolimod Analogues: FTY720-C2 and FTY720-Mitoxy” (PLoS ONE, 2016)
